Laboratory results: PubChem BioAssay AID1918932 (Molecular Pharmacology Branch, DTP, NCI, 2023)
Where “and” joins values, the source holds several entries; their conditions need not be identical. Identical values can stand only once.

Test system: 171881-019-R-J1-PDC complex spheroid viability
Test: Anticancer human tumor 171881-019-R-J1-PDC patient-derived invasive breast carcinoma cell line growth inhibition
Settings: for viability, T/C: stronger effect = lower value
In short: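 Multicellular complex spheroids of tumor cells with human endothelial cells (HUVEC) and mesenchymal stem cells; the LSD1 inhibitor iadademstat was combined with standard-of-care or investigational agents. Top concentration at or near clinical Cmax, half-log dilutions; final DMSO ≤0.25%.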

[1] = curve of first compound, second compound 0.1 µM
[2] = curve of first compound, second compound 0.316 µM
[3] = curve of first compound, second compound 1 µM
[4] = curve of first compound, second compound 3.16 µM
[5] = curve of first compound, second compound 10 µM
[6] = second compound 0.1 µM, first compound 0.00316 µM
[7] = second compound 0.1 µM, first compound 0.01 µM
[8] = second compound 0.1 µM, first compound 0.0316 µM
[9] = second compound 0.1 µM, first compound 0.1 µM
[10] = second compound 0.1 µM, first compound 0.316 µM
[11] = second compound 0.1 µM, first compound 1 µM
[12] = second compound 0.316 µM, first compound 0.00316 µM
[13] = second compound 0.316 µM, first compound 0.01 µM
[14] = second compound 0.316 µM, first compound 0.0316 µM
[15] = second compound 0.316 µM, first compound 0.1 µM
[16] = second compound 0.316 µM, first compound 0.316 µM
[17] = second compound 0.316 µM, first compound 1 µM
[18] = second compound 1 µM, first compound 0.00316 µM
[19] = second compound 1 µM, first compound 0.01 µM
[20] = second compound 1 µM, first compound 0.0316 µM
[21] = second compound 1 µM, first compound 0.1 µM
[22] = second compound 1 µM, first compound 0.316 µM
[23] = second compound 1 µM, first compound 1 µM
[24] = second compound 3.16 µM, first compound 0.00316 µM
[25] = second compound 3.16 µM, first compound 0.01 µM
[26] = second compound 3.16 µM, first compound 0.0316 µM
[27] = second compound 3.16 µM, first compound 0.1 µM
[28] = second compound 3.16 µM, first compound 0.316 µM
[29] = second compound 3.16 µM, first compound 1 µM
[30] = second compound 10 µM, first compound 0.00316 µM
[31] = second compound 10 µM, first compound 0.01 µM
[32] = second compound 10 µM, first compound 0.0316 µM
[33] = second compound 10 µM, first compound 0.1 µM
[34] = second compound 10 µM, first compound 0.316 µM
[35] = second compound 10 µM, first compound 1 µM
[36] = second compound 0.1 µM, first compound 0.00949 µM
[37] = second compound 0.1 µM, first compound 0.03 µM
[38] = second compound 0.1 µM, first compound 0.0949 µM
[39] = second compound 0.1 µM, first compound 0.3 µM
[40] = second compound 0.316 µM, first compound 0.00949 µM
[41] = second compound 0.316 µM, first compound 0.03 µM
[42] = second compound 0.316 µM, first compound 0.0949 µM
[43] = second compound 0.316 µM, first compound 0.3 µM
[44] = second compound 1 µM, first compound 0.00949 µM
[45] = second compound 1 µM, first compound 0.03 µM
[46] = second compound 1 µM, first compound 0.0949 µM
[47] = second compound 1 µM, first compound 0.3 µM
[48] = second compound 3.16 µM, first compound 0.00949 µM
[49] = second compound 3.16 µM, first compound 0.03 µM
[50] = second compound 3.16 µM, first compound 0.0949 µM
[51] = second compound 3.16 µM, first compound 0.3 µM
[52] = second compound 10 µM, first compound 0.00949 µM
[53] = second compound 10 µM, first compound 0.03 µM
[54] = second compound 10 µM, first compound 0.0949 µM
[55] = second compound 10 µM, first compound 0.3 µM
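Also: spheroids exposed to agents for 7 days after 3 days growth.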

## Nc1ncn(C2CC(O)C(CO)O2)c(=O)n1 (configuration not stated) + NC1CCC(NC2CC2c2ccccc2)CC1
[1]
  IC50: > 1000 nM
[2]
  IC50: > 1000 nM
[3]
  IC50: > 1000 nM
[4]
  IC50: > 1000 nM
[5]
  IC50: > 1000 nM
[6]
  viability, T/C: 88.4%
[7]
  viability, T/C: 93.3%
[8]
  viability, T/C: 93.1%
[9]
  viability, T/C: 115%
[10]
  viability, T/C: 111%
[11]
  viability, T/C: 101%
[12]
  viability, T/C: 96%
[13]
  viability, T/C: 81.7%
[14]
  viability, T/C: 92.9%
[15]
  viability, T/C: 122%
[16]
  viability, T/C: 115%
[17]
  viability, T/C: 94.2%
[18]
  viability, T/C: 94.9%
[19]
  viability, T/C: 81.1%
[20]
  viability, T/C: 95.6%
[21]
  viability, T/C: 123%
[22]
  viability, T/C: 117%
[23]
  viability, T/C: 97.1%
[24]
  viability, T/C: 82.5%
[25]
  viability, T/C: 92.9%
[26]
  viability, T/C: 106%
[27]
  viability, T/C: 122%
[28]
  viability, T/C: 114%
[29]
  viability, T/C: 97.7%
[30]
  viability, T/C: 86.1%
[31]
  viability, T/C: 105%
[32]
  viability, T/C: 112%
[33]
  viability, T/C: 102%
[34]
  viability, T/C: 111%
[35]
  viability, T/C: 99.8%

## O=C(C=Cc1cccc(S(=O)(=O)Nc2ccccc2)c1)NO + NC1CCC(NC2CC2c2ccccc2)CC1
[1]
  IC50: 441 nM
[2]
  IC50: 387 nM
[3]
  IC50: 371 nM
[4]
  IC50: 370 nM
[5]
  IC50: 363 nM
[36]
  viability, T/C: 81.7%
[37]
  viability, T/C: 86.9%
[38]
  viability, T/C: 112%
[39]
  viability, T/C: 69.3%
Second compound 0.1 µM, first compound 0.949 µM
  viability, T/C: 10.8%
Second compound 0.1 µM, first compound 3 µM
  viability, T/C: 0.16%
[40]
  viability, T/C: 92.8%
[41]
  viability, T/C: 104%
[42]
  viability, T/C: 112%
[43]
  viability, T/C: 63.5%
Second compound 0.316 µM, first compound 0.949 µM
  viability, T/C: 5.13%
Second compound 0.316 µM, first compound 3 µM
  viability, T/C: 0.17%
[44]
  viability, T/C: 101%
[45]
  viability, T/C: 108%
[46]
  viability, T/C: 100%
[47]
  viability, T/C: 59%
Second compound 1 µM, first compound 0.949 µM
  viability, T/C: 10.2%
Second compound 1 µM, first compound 3 µM
  viability, T/C: 5.62%
[48]
  viability, T/C: 93.4%
[49]
  viability, T/C: 105%
[50]
  viability, T/C: 97%
[51]
  viability, T/C: 58.9%
Second compound 3.16 µM, first compound 0.949 µM
  viability, T/C: 9.02%
Second compound 3.16 µM, first compound 3 µM
  viability, T/C: 0.15%
[52]
  viability, T/C: 84.1%
[53]
  viability, T/C: 93%
[54]
  viability, T/C: 111%
[55]
  viability, T/C: 59.1%
Second compound 10 µM, first compound 0.949 µM
  viability, T/C: 7.76%
Second compound 10 µM, first compound 3 µM
  viability, T/C: 0.33%

## CCc1c2c(nc3ccc(O)cc13)-c1cc3c(c(=O)n1C2)COC(=O)[C@]3(O)CC + NC1CCC(NC2CC2c2ccccc2)CC1
[1]
  IC50: 3.45 nM
[2]
  IC50: 3.88 nM
[3]
  IC50: 4.87 nM
[4]
  IC50: 5.52 nM
[5]
  IC50: 5.75 nM
Second compound 0.1 µM, first compound 0.000949 µM
  viability, T/C: 64.2%
Second compound 0.1 µM, first compound 0.003 µM
  viability, T/C: 53.5%
[36]
  viability, T/C: 32.2%
[37]
  viability, T/C: 20.5%
[38]
  viability, T/C: 8.51%
[39]
  viability, T/C: 6.45%
Second compound 0.316 µM, first compound 0.000949 µM
  viability, T/C: 67.5%
Second compound 0.316 µM, first compound 0.003 µM
  viability, T/C: 55.5%
[40]
  viability, T/C: 33.2%
[41]
  viability, T/C: 20.6%
[42]
  viability, T/C: 9.31%
[43]
  viability, T/C: 6.46%
Second compound 1 µM, first compound 0.000949 µM
  viability, T/C: 69.5%
Second compound 1 µM, first compound 0.003 µM
  viability, T/C: 61.4%
[44]
  viability, T/C: 34.8%
[45]
  viability, T/C: 22.4%
[46]
  viability, T/C: 10.3%
[47]
  viability, T/C: 7.43%
Second compound 3.16 µM, first compound 0.000949 µM
  viability, T/C: 75%
Second compound 3.16 µM, first compound 0.003 µM
  viability, T/C: 65.3%
[48]
  viability, T/C: 35.5%
[49]
  viability, T/C: 21.9%
[50]
  viability, T/C: 10.3%
[51]
  viability, T/C: 7.23%
Second compound 10 µM, first compound 0.000949 µM
  viability, T/C: 86%
Second compound 10 µM, first compound 0.003 µM
  viability, T/C: 66.8%
[52]
  viability, T/C: 35.6%
[53]
  viability, T/C: 21.8%
[54]
  viability, T/C: 9.69%
[55]
  viability, T/C: 6.81%

## O=C(C=Cn1cnc(-c2cc(C(F)(F)F)cc(C(F)(F)F)c2)n1)NNc1cnccn1 + NC1CCC(NC2CC2c2ccccc2)CC1
[1]
  IC50: < 3.16 nM
[2]
  IC50: < 3.16 nM
[3]
  IC50: < 3.16 nM
[4]
  IC50: < 3.16 nM
[5]
  IC50: < 3.16 nM
[6]
  viability, T/C: 20%
[7]
  viability, T/C: 14.8%
[8]
  viability, T/C: 5.39%
[9]
  viability, T/C: 2.15%
[10]
  viability, T/C: 2.24%
[11]
  viability, T/C: 2.08%
[12]
  viability, T/C: 20.9%
[13]
  viability, T/C: 14.6%
[14]
  viability, T/C: 6.07%
[15]
  viability, T/C: 2.35%
[16]
  viability, T/C: 6.21%
[17]
  viability, T/C: 2.25%
[18]
  viability, T/C: 22.7%
[19]
  viability, T/C: 16.1%
[20]
  viability, T/C: 6.8%
[21]
  viability, T/C: 2.59%
[22]
  viability, T/C: 2.63%
[23]
  viability, T/C: 4.14%
[24]
  viability, T/C: 24.3%
[25]
  viability, T/C: 16.4%
[26]
  viability, T/C: 6.64%
[27]
  viability, T/C: 2.73%
[28]
  viability, T/C: 2.91%
[29]
  viability, T/C: 2.78%
[30]
  viability, T/C: 24.7%
[31]
  viability, T/C: 17.3%
[32]
  viability, T/C: 7.11%
[33]
  viability, T/C: 2.96%
[34]
  viability, T/C: 3.51%
[35]
  viability, T/C: 3.29%

## Cn1ncnc1C1c2n[nH]c(=O)c3cc(F)cc(c23)NC1c1ccc(F)cc1 (configuration not stated)
Compound 0.000316 µM
  viability, T/C: 92.8% and 99.4%
Compound 0.001 µM
  viability, T/C: 103% and 104%
Compound 0.00316 µM
  viability, T/C: 88% and 103%
Compound 0.01 µM
  viability, T/C: 102% and 99%
Compound 0.0316 µM
  viability, T/C: 82.2% and 97.7%
Compound 0.1 µM
  viability, T/C: 97.2% and 98.6%
Curve of compound
  IC50: > 100 nM

## Cn1ncnc1C1c2n[nH]c(=O)c3cc(F)cc(c23)NC1c1ccc(F)cc1 (configuration not stated) + NC1CC1c1ccc(-c2cccc(O)c2)cc1
[1]
  IC50: > 100 nM
[2]
  IC50: > 100 nM
[3]
  IC50: > 100 nM
[4]
  IC50: > 100 nM
[5]
  IC50: > 100 nM
Second compound 0.1 µM, first compound 0.000316 µM
  viability, T/C: 105%
Second compound 0.1 µM, first compound 0.001 µM
  viability, T/C: 106%
[6]
  viability, T/C: 107%
[7]
  viability, T/C: 104%
[8]
  viability, T/C: 105%
[9]
  viability, T/C: 102%
Second compound 0.316 µM, first compound 0.000316 µM
  viability, T/C: 106%
Second compound 0.316 µM, first compound 0.001 µM
  viability, T/C: 111%
[12]
  viability, T/C: 109%
[13]
  viability, T/C: 108%
[14]
  viability, T/C: 108%
[15]
  viability, T/C: 102%
Second compound 1 µM, first compound 0.000316 µM
  viability, T/C: 105%
Second compound 1 µM, first compound 0.001 µM
  viability, T/C: 106%
[18]
  viability, T/C: 111%
[19]
  viability, T/C: 108%
[20]
  viability, T/C: 103%
[21]
  viability, T/C: 103%
Second compound 3.16 µM, first compound 0.000316 µM
  viability, T/C: 97.2%
Second compound 3.16 µM, first compound 0.001 µM
  viability, T/C: 104%
[24]
  viability, T/C: 101%
[25]
  viability, T/C: 102%
[26]
  viability, T/C: 98.6%
[27]
  viability, T/C: 96.8%
Second compound 10 µM, first compound 0.000316 µM
  viability, T/C: 85.3%
Second compound 10 µM, first compound 0.001 µM
  viability, T/C: 91.2%
[30]
  viability, T/C: 90.8%
[31]
  viability, T/C: 83%
[32]
  viability, T/C: 83.3%
[33]
  viability, T/C: 81.3%
